From patent publication US20060063764A1, “Insect repellents” (Givaudan SA, priority 2002, published 2006)
Where “and” joins values, the source holds several entries; their conditions need not be identical. Equal entries are not always repeated.

System: German cockroaches (Blatella Germanica)
Assay: Cockroach repellency on partially treated melamine-formaldehyde laminate surface (harbourage choice test)
Assay type: in vivo
Conditions: 20 mg/m^2; for Percentage Present on treated section, Average / Percentage Present on untreated section, Average: Average of days 1, 2, 3; for Number of Cockroaches present, Treated Section / Number of Cockroaches present, Untreated Section / Number of Cockroaches, Dead: single replicate, n = 20; for Number of Cockroaches present, Treated Section, Total of 4 replicates / Number of Cockroaches present, Untreated Section, Total of 4 replicates / Number of Cockroaches, Dead, Total of 4 replicates: total of 80
Protocol: The effectiveness of compounds of formula I as insect repellents is determined using German cockroaches exposed to a melamine-formaldehyde laminate surface partially treated/partially untreated with a test compound of formula I.
The study was conducted in an air-conditioned laboratory at a temperature of 22°±2° ° C. under a normal day/night cycle, using German cockroaches (Blatella Germanica) of mixed sex and age. The study was conducted over a 3 day period and the repellent effectiveness was assessed 1, 2 and 3 days after cockroach introduction.
One half of a rectangle of laminate 40 cm×30 cm was treated at 20 mg/m^2 of a test compound of formula I. This was achieved by soaking a paper wipe (“Rag on a Roll” ca 20 cm×20 cm) in a solution of the test compound in ethanol, squeezing out the excess liquid and wiping over the surface to give the required coverage. This was checked by weighing the cloth after application. The surface was allowed to dry. The other half of the rectangle was wiped with ethanol alone (untreated surface).
The treated laminate rectangle was placed on the bench and a plastic container was placed on the rectangle. This had been treated with “Fluon” (trade mark), a sprayable fluoropolymer, to prevent cockroach escape.
Two sheets of laminate (10 cm×10 cm) were placed on the laminate, one on the treated surface and one on the untreated surface. This acted as a cockroach harbourage. The laminate sheet to be used in the treated section was treated at the same rate as the treated laminate. The laminate was placed on two 1 cm high bottle tops to allow cockroaches access under the laminate.
20 German cockroaches were added (5 adults and 15 nymphs) to the centre of the laminate. No food and water was supplied for these cockroaches.
At 1, 2 and 3 days after cockroach introduction the number of cockroaches under each harbourage was counted. After each count the harbourage position was changed to avoid the possibility of habituation to one location, the harbourages were replaced and new cockroaches were added to replace any dead cockroaches.
The above was repeated 3 times to provide a total of 4 replicates.
The methodology of Example 2 was repeated for all of the compounds set forth in Example 1.

[1] = 1 day after cockroach introduction
[2] = 2 days after cockroach introduction
[3] = 3 days after cockroach introduction

Row | Structure (SMILES) | Percentage Present on treated section (1 day after treatment) [%] | Percentage Present on untreated section (1 day after treatment) [%] | Percentage Present on treated section (2 days after treatment) [%] | Percentage Present on untreated section (2 days after treatment) [%] | Percentage Present on treated section (3 days after treatment) [%] | Percentage Present on untreated section (3 days after treatment) [%] | Percentage Present on treated section, Average [%] | Percentage Present on untreated section, Average [%] | other results
1 | CCN(CC)C(=O)O[C@@H]1C[C@H](C)CC[C@H]1C(C)C | 7.6 | 92.4 | 2.5 | 97.5 | 2.5 | 97.5 | 4.2 | 95.8 | –
2 | CC(C)[C@@H]1CC[C@@H](C)C[C@H]1OC(=O)Nc1ccccc1 | 2.5 | 97.5 | 3.7 | 96.3 | 2.5 | 97.5 | 2.9 | 97.1 | –
3 | CC(C)[C@@H]1CC[C@@H](C)C[C@H]1OC(=O)N1CCCC1 | 2.5 | 97.5 | 7.5 | 92.5 | 12.7 | 87.3 | 7.6 | 92.4 | –
4 | CC(C)[C@@H]1CC[C@@H](C)C[C@H]1OC(=O)N1CCOCC1 | 17.5 | 82.5 | 17.5 | 82.5 | 25.0 | 75.0 | 20.0 | 80.0 | –
5 | CC(C)[C@@H]1CC[C@@H](C)C[C@H]1OC(=O)N1CCCCC1 | 10.0 | 90.0 | 11.3 | 88.7 | 3.9 | 96.1 | 8.4 | 91.6 | –
6 | CC(C)CNC(=O)O[C@@H]1C[C@H](C)CC[C@H]1C(C)C | 31.3 | 68.7 | 17.5 | 82.5 | 16.3 | 83.7 | 21.7 | 78.3 | –
7 | CCCCNC(=O)O[C@@H]1C[C@H](C)CC[C@H]1C(C)C | 6.3 | 93.7 | 17.5 | 82.5 | 7.5 | 92.5 | 10.5 | 89.6 | –
8 | COC(=O)CCNC(=O)O[C@@H]1C[C@H](C)CC[C@H]1C(C)C | 11.4 | 88.6 | 2.5 | 97.5 | 10.0 | 90.0 | 8.0 | 92.0 | –
9 | CNC(=O)O[C@@H]1C[C@H](C)CC[C@H]1C(C)C [Methyl-Carbamic Acid (−)-Menthyl Ester, Methyl-carbamic acid (−)-menthyl ester] | – | – | – | – | – | – | – | – | Number of Cockroaches present, Treated Section [1]: 0 (2×) and 3 and 1; Number of Cockroaches present, Untreated Section [1]: 20 and 19 (2×) and 17; Number of Cockroaches, Dead [1]: 0 (3×) and 1; Number of Cockroaches present, Treated Section, Total of 4 replicates [1]: 4; Number of Cockroaches present, Untreated Section, Total of 4 replicates [1]: 75; Number of Cockroaches, Dead, Total of 4 replicates [1]: 1; Number of Cockroaches present, Treated Section [2]: 1 (2×) and 0 (2×); Number of Cockroaches present, Untreated Section [2]: 19 (3×) and 20; Number of Cockroaches, Dead [2]: 0 (3×) and 1; Number of Cockroaches present, Treated Section, Total of 4 replicates [2]: 2; Number of Cockroaches present, Untreated Section, Total of 4 replicates [2]: 77; Number of Cockroaches, Dead, Total of 4 replicates [2]: 1; Number of Cockroaches present, Treated Section [3]: 0 (3×) and 1; Number of Cockroaches present, Untreated Section [3]: 20 (3×) and 19; Number of Cockroaches, Dead [3]: 0; Number of Cockroaches present, Treated Section, Total of 4 replicates [3]: 1; Number of Cockroaches present, Untreated Section, Total of 4 replicates [3]: 79; Number of Cockroaches, Dead, Total of 4 replicates [3]: 0
10 | CNC(=O)O[C@@H]1C[C@H](C)CC[C@H]1C(C)C [drawing 13] | 5.1 | 94.9 | 2.5 | 97.5 | 1.3 | 98.7 | 3.0 | 97.0 | –
